According to article PMC4506051, “Pharmacokinetic Profiles of Active Ingredients and Its Metabolites Derived from Rikkunshito, a Ghrelin Enhancer, in Healthy Japanese Volunteers: A Cross-Over, Randomized Study” (PLoS ONE, 2015):

Tests used:
[1] = Exploratory trial: ingredients in β-glucuronidase (enzyme)-treated plasma; assay type: in vivo, human; details: β-glucuronidase-treated, rikkunshito 7.5 g, mean ± S.D., n = 4
Experimental: (§1) In the first exploratory trial, 20-mL blood samples were collected from the cutaneous vein in the subjects’ forearm via a blood sampling tube that contained heparin at 0 (preadministration), 0.5, 1, 2, 4, and 8 h after a single oral administration of rikkunshito (Lot E24652). The dose of rikkunshito used in this trial was 7.5 g/day, which is the clinical daily dose, to widely explore rikkunshito-derived ingredients that enter the blood. Along with plasma, urine samples were collected at three points: between dinner and bedtime (preadministration), between 0 and 4 h after administration, and between 4 and 8 h after administration. The blood was immediately centrifuged at 1700 ×g for 10 min to obtain plasma. Plasma and urine fractions were stored at −80°C or lower until analysis.
(§2) For quantification of 30 ingredients other than atractylodin and synephrine, 25 µL of standard solution or methanol was added to 500 µL plasma or urine samples followed by mixing. Atractylenolide III or digoxin (IS) solution (50 μL) was added to the solutions followed by mixing. For urine, 400 µL of blank plasma was added to the solutions. Ammonium acetate solution (100 mM, 100 or 400 µL) was added to the solutions followed by mixing. For enzymatic treatment, plasma and urine samples were incubated with β-glucuronidase (100 units in 100 mM ammonium acetate) for 2 h at 37°C. A solid-phase cartridge (OASIS HLB, 30 mg/1cc, Waters) was conditioned with methanol and 10 mM ammonium acetate solution, and the samples were loaded onto the cartridge. The cartridge was washed water : methanol (9:1, v/v), and 1.5 mL of methanol and 30 µL of propylene glycol were added to the cartridge to elute the analytes. The mixtures were dried at 25°C under a stream of nitrogen gas. Furthermore, 100 μL of 10 mM ammonium acetate : methanol (8:2, v/v) was added to the dried samples followed by mixing and sonication. The solutions were filtered (0.22 µm) and followed by injection into the LC–MS/MS system. […] Those analytical conditions are summarized in S2 Table and S3 Table.

[2] = Stability of ingredients in gastric pH solution (pH 1.2, 37°C); assay type: physicochemical
Experimental: Rikkunshito gradually dissolved in acidic solution (pH 1.2) at 37°C, and the concentration of atractylodin after adding 0.25, 0.5, 1, and 2 h was measured by gas chromatography–mass spectrometry.

[3] = Exploratory trial: amount of rikkunshito ingredients in urine; assay type: in vivo, human
Experimental: as §1
(§3) For quantification of synephrine, 5 µL of standard solution or methanol was added to 100 µL plasma or urine samples followed by mixing. Ten microliters of erythromycin [internal standard (IS)] solution was added to the solutions followed by mixing and centrifugation (20,400 ×g, 5 min, 4°C). The supernatants were loaded onto an Ostro 96-well plate (Waters) and centrifuged (1500 ×g, 3 min, 4°C) followed by injection into the LC–MS/MS.
as §2

[4] = Exploratory trial: ingredients in β-glucuronidase (enzyme)-treated urine; assay type: in vivo, human
Experimental: as §1, §2

[5] = Exploratory trial: plasma concentration of rikkunshito ingredients after single oral rikkunshito 7.5 g; assay type: in vivo; details: for Plasma concentration, 0 h: 0 h (preadministration), single oral rikkunshito 7.5 g; for Plasma concentration, 4 h: 4 h after single oral rikkunshito 7.5 g; for Plasma concentration, 8 h: 8 h after single oral rikkunshito 7.5 g
Experimental: A random sequence was generated using a computer. The safety endpoint was evaluated in all volunteers.
as §1, §3, §2

[6] = Method validation: stability in standard, stock and working solution; details: IS 2000 ng/mL
[7] = Formation of ingredients derived from rikkunshito in formulation, blood, and urine (S11 Table summary); details: after rikkunshito administration, per ingredient in the formulation
[8] = 0–4 h after single oral rikkunshito 7.5 g, mean ± S.D., n = 4
[9] = 4–8 h after single oral rikkunshito 7.5 g, mean ± S.D., n = 4
[10] = preadministration (between dinner and bedtime), mean ± S.D., n = 4
[11] = β-glucuronidase-treated, 0–4 h after rikkunshito 7.5 g, mean ± S.D., n = 4
[12] = β-glucuronidase-treated, 4–8 h after rikkunshito 7.5 g, mean ± S.D., n = 4
[13] = β-glucuronidase-treated, preadministration, mean ± S.D., n = 4
[14] = rikkunshito in acidic solution (pH 1.2) at 37°C, 0.5 h
[15] = rikkunshito in acidic solution (pH 1.2) at 37°C, 1 h
[16] = rikkunshito in acidic solution (pH 1.2) at 37°C, 2 h

COc1c(CC=C(C)C)c(O)cc2oc(=O)c(-c3ccc(O)cc3O)cc12 [Glycycoumarin]
concentration at 0.5 h ([1]; human, plasma, oral, 0.5 h): 2.34 ng/mL
concentration at 1 h ([1]; human, plasma, oral, 1 h): 0.987 ± 0.36 ng/mL
concentration at 2 h ([1]; human, plasma, oral, 2 h, read-out: Plasma concentration in enzyme-treated plasma, 2 h): 0.328 ± 0.183 ng/mL
concentration at 4 h ([1]; human, plasma, oral, 4 h, read-out: Plasma concentration in enzyme-treated plasma, 4 h): 0.371 ± 0.113 ng/mL
concentration at 8 h ([1]; human, plasma, oral, 8 h, read-out: Plasma concentration in enzyme-treated plasma, 8 h): 0.222 ± 0.134 ng/mL
Plasma concentration in enzyme-treated plasma, 0 h ([1]; 0 h (preadministration)): BQL
Plasma concentration in enzyme-treated plasma, 0.5 h ([1]; 0.5 h): 2.34 ± 0.848 ng/mL
Stability in gastric pH solution, Quantitative value ([2]; 0.5 h, pH 1.2): 5.58 ng/mL
Stability in gastric pH solution, Quantitative value ([2]; 1 h, pH 1.2): 7.09 ng/mL
Stability in gastric pH solution, Quantitative value ([2]; 2 h, pH 1.2): 5.09 ng/mL
Amount in urine, 0–4 h [3, 8]: 2300 ± 1150 ng
Amount in urine, 4–8 h [3, 9]: 1600 ± 886 ng
Amount in urine, Pre [3, 10]: 4.61 ± 4.20 ng
Amount in enzyme-treated urine, 0–4 h [4, 11]: 7010 ± 2840 ng
Amount in enzyme-treated urine, 4–8 h [4, 12]: 3260 ± 1580 ng
Amount in enzyme-treated urine, Pre [4, 13]: 22.8 ± 19.7 ng
Plasma concentration, 0 h ([5]; mean ± S.D., n = 4): BQL
Plasma concentration, 4 h ([5]; mean ± S.D., n = 4): BQL
Plasma concentration, 8 h ([5]; mean ± S.D., n = 4): BQL
Plasma concentration of unchanged form before enzyme treatment ([5]; detected in only one subject, at any time point): approximately 30 pg/ml
concentration at 0.5 h ([5]; human, plasma, 0.5 h after single oral rikkunshito 7.5 g, mean ± S.D., n = 4, read-out: Plasma concentration, 0.5 h): 0.00923 ± 0.0185 ng/mL
concentration at 1 h ([5]; human, plasma, 1 h after single oral rikkunshito 7.5 g, mean ± S.D., n = 4): 0.00715 ± 0.0143 ng/mL
concentration at 2 h ([5]; human, plasma, 2 h after single oral rikkunshito 7.5 g, mean ± S.D., n = 4, read-out: Plasma concentration, 2 h): 0.00693 ± 0.0139 ng/mL

C=C1CCC[C@]2(C)C[C@]3(O)OC(=O)C(C)=C3C[C@@H]12 [IS, Atractylenolide III, reference compound]
Short-term stability of standard solution, RR ([6]; at room temperature for 24 h): IS: 100.0%
Long-term stability of standard solution, RR ([6]; refrigerator (0.5°C to 7.4°C) for 4 weeks): IS: 93.4%

CNCC(O)c1ccc(O)cc1 (stereo not drawn) [Synephrine]
Stability in gastric pH solution, Quantitative value [2, 14]: 3200 ng/mL
Stability in gastric pH solution, Quantitative value [2, 15]: 3180 ng/mL
Stability in gastric pH solution, Quantitative value [2, 16]: 2960 ng/mL
Amount in urine, 0–4 h [3, 8]: 2150 ± 296 ng
Amount in urine, 4–8 h [3, 9]: 798 ± 282 ng
Amount in urine, Pre [3, 10]: 24.2 ± 28.8 ng
Plasma concentration, 0 h ([5]; mean ± S.D., n = 4): BQL
Plasma concentration, 0.5 h ([5]; 0.5 h after single oral rikkunshito 7.5 g, mean ± S.D., n = 4): 0.029 ± 0.058 ng/mL
Plasma concentration, 1 h ([5]; 1 h after single oral rikkunshito 7.5 g, mean ± S.D., n = 4): BQL
Plasma concentration, 2 h ([5]; 2 h after single oral rikkunshito 7.5 g, mean ± S.D., n = 4): BQL
Plasma concentration, 4 h ([5]; mean ± S.D., n = 4): BQL
Plasma concentration, 8 h ([5]; mean ± S.D., n = 4): BQL

CCCCC[C@H](O)CC(=O)CCc1ccc(O)c(OC)c1 [[6]-Gingerol, [6]-Gingerol]
Stability in gastric pH solution, Quantitative value ([2]; 0.5 h, pH 1.2): 152 ng/mL
Stability in gastric pH solution, Quantitative value ([2]; 1 h, pH 1.2): 154 ng/mL
Stability in gastric pH solution, Quantitative value ([2]; 2 h, pH 1.2): 149 ng/mL
Amount in urine, Pre ([3]; human, in vivo): 18.6 ± 26.2 ng
Amount in urine, 0–4 h ([3]; human, in vivo, po): 602 ± 552 ng
Amount in urine, 4–8 h ([3]; human, in vivo, po): 35.0 ± 57.1 ng
Amount in enzyme-treated urine, 0–4 h ([4]; human, in vivo): 8170 ± 5630 ng
Amount in enzyme-treated urine, 4–8 h ([4]; human, in vivo): 821 ± 654 ng
Amount in enzyme-treated urine, Pre ([4]; human, in vivo): 278 ± 261 ng
Increase of urine concentration after β-glucuronidase treatment compared with before treatment ([4]; human, in vivo): more than 10 fold

CCCCC/C=C/C(=O)CCc1ccc(O)c(OC)c1 [[6]-Shogaol, [6]-Shogaol]
Stability in gastric pH solution, Quantitative value [2, 14]: 17.9 ng/mL
Stability in gastric pH solution, Quantitative value [2, 15]: 18.5 ng/mL
Stability in gastric pH solution, Quantitative value [2, 16]: 17.9 ng/mL
Amount in urine, 0–4 h [3, 8]: 459 ± 283 ng
Amount in urine, 4–8 h [3, 9]: 15.4 ± 30.7 ng
Amount in urine, Pre [3, 10]: 16.3 ± 26.4 ng
Increase of urine concentration after β-glucuronidase treatment compared with before treatment ([4]; rikkunshito 7.5 g): more than 10 fold
Amount in enzyme-treated urine, 0–4 h [4, 11]: 4980 ± 1480 ng
Amount in enzyme-treated urine, 4–8 h [4, 12]: 392 ± 310 ng
Amount in enzyme-treated urine, Pre [4, 13]: 109 ± 160 ng

CCCCCCC[C@H](O)CC(=O)CCc1ccc(O)c(OC)c1 [[8]-Gingerol, [8]-Gingerol]
Amount in urine, 0–4 h [3, 8]: 8.97 ± 17.9 ng
Amount in urine, 4–8 h [3, 9]: BQL
Amount in urine, Pre [3, 10]: BQL
Amount in enzyme-treated urine, 0–4 h [4, 11]: 49.5 ± 78.3 ng
Amount in enzyme-treated urine, 4–8 h [4, 12]: BQL
Amount in enzyme-treated urine, Pre [4, 13]: 2.73 ± 5.46 ng

CCCCCCC/C=C/C(=O)CCc1ccc(O)c(OC)c1 [[8]-Shogaol, [8]-Shogaol]
Stability in gastric pH solution, Quantitative value [2, 14]: 2.00 ng/mL
Stability in gastric pH solution, Quantitative value [2, 15]: 1.89 ng/mL
Stability in gastric pH solution, Quantitative value [2, 16]: 1.83 ng/mL
Amount in urine, 0–4 h [3, 8]: 9.00 ± 18.0 ng
Amount in urine, 4–8 h [3, 9]: BQL
Amount in urine, Pre [3, 10]: BQL
Increase of urine concentration after β-glucuronidase treatment compared with before treatment ([4]; rikkunshito 7.5 g): more than 10 fold
Amount in enzyme-treated urine, 0–4 h [4, 11]: 239 ± 62.5 ng
Amount in enzyme-treated urine, 4–8 h [4, 12]: BQL
Amount in enzyme-treated urine, Pre [4, 13]: 3.73 ± 7.46 ng

CC1(C)[C@@H](O[C@H]2O[C@H](C(=O)O)[C@@H](O)[C@H](O)[C@H]2O[C@@H]2O[C@H](C(=O)O)[C@@H](O)[C@H](O)[C@H]2O)CC[C@]2(C)[C@H]3C(=O)C=C4[C@@H]5C[C@@](C)(C(=O)O)CC[C@]5(C)CC[C@@]4(C)[C@]3(C)CC[C@@H]12 [glycyrrhizic acid]
Formation of ingredients: form found in Blood [7]: 18β-Glycyrrhetinic acid Glycyrrhetinic acid 3-O-glucuronide
Formation of ingredients: form found in Urine ([7]; BQL = below the quantification limit): 18β-Glycyrrhetinic acid Glycyrrhetinic acid 3-O-glucuronide
